Measured values reported in patent US12297189B2, “Crystalline forms of a 4-pyrimidinesulfamide derivative aprocitentan” (IDORSIA PHARMACEUTICALS LTD, priority 2017, dated 2025).
Blank lines part the entries; values can stand above or below the molecule they belong to.

Legend:
[1] = test system: conscious, male hypertensive deoxycorticosterone acetate salt rats; test: Chronic effects of repeated oral administration in DOCA-salt rats; format: in vivo, rat; details: oral 1, 10 and 100 mg/kg/day for 4 weeks
Description: The chronic effects of repeated administrations of doses of 1, 10 and 100 mg/kg/day of COMPOUND, in particular mean arterial blood pressure (hereafter “MAP”), and heart rate (hereafter “HR”), were evaluated in conscious, male hypertensive deoxycorticosterone acetate salt rats (hereafter “DOCA-salt rats”—see details about this model in Gavras et al., Circ. Res. (1975), 36, 300-309). In the DOCA-salt rats, hypertension is induced by the combination of unilateral nephrectomy, implantation of pellets of the mineralocorticoid analog DOCA, and provision of 1% sodium chloride in drinking water. The results of the DOCA-salt rats treated with COMPOUND were compared to those obtained for Wistar rats or for DOCA-salt rats that received only the vehicle (4% gelatin aquous solution). • a) The results obtained regarding MAP are summarised in FIG. 16 wherein each data point is presented as a 24-hour mean. 6 rats were used for each of the 5 test groups (Wistar control rats [bottom line], DOCA-salt control rats [2nd line from top at day 28] and DOCA-salt rats receiving repeated administrations of doses of 1 mg/kg/day [top line at day 28], 10 mg/kg/day [3rd line from top at day 28] and 100 mg/kg/day [4th line from top at day 28] of COMPOUND).

[2] = test system: conscious, male spontaneaously hypertensive rats; test: Acute effects on MAP and HR by telemetry in spontaneously hypertensive rats; format: in vivo, rat; details: SHRs, doses 1-300 mg/kg
Description: The acute effects of COMPOUND on blood pressure, in particular on mean arterial blood pressure (hereafter “MAP”), and heart rate (hereafter “HR”) were evaluated by means of telemetry in conscious, male spontancaously hypertensive rats (hereafter “SHRs”—see details about this model in Atanur et al., Genome Res. (2010), 20, 791-803). Groups of 4-6 SHRs were used for the vehicle (7.5% gelatin aquous solution) and each dose of COMPOUND tested (1, 3, 10, 30, 100, and 300 mg/kg). Effects of COMPOUND on HR and MAP were calculated for individual animals relative to the 24 h period before administering. The results obtained regarding MAP (maximal MAP decrease observed over 6 consecutive hours) are summarised in FIG. 11 (data are presented as mean±standard error of the mean). […] In contrast to MAP, HR was not affected.

male Wistar rats = test: Effect on fluid retention (haematocrit) in Wistar rats; format: in vivo, rat; details: single oral dose 1-30 mg/kg, 24 hours after administration
Description: A decrease in haematocrit (Hct) or haemoglobin occurs secondary to an increase in plasma volume and can be used as a marker of fluid retention. A single oral dose of aprocitentan (1-30 mg/kg) or vehicle (gelatin) was administered by gavage to male Wistar rats. Twenty-four hours after administration, sublingual blood was sampled under isoflurane-induced anesthesia. Haematocrit was measured using a hematology analyser.

[3] = test system: conscious, male hypertensive deoxycorticosterone acetate salt rats; test: Acute effects on MAP and HR by telemetry in DOCA-salt rats; format: in vivo, rat; details: doses 0.3-300 mg/kg
Description: The acute effects of COMPOUND on blood pressure, in particular on mean arterial blood pressure (hereafter “MAP”), and heart rate (hereafter “HR”) were evaluated by means of telemetry in conscious, male hypertensive deoxycorticosterone acetate salt rats (hereafter “DOCA-salt rats”—see details about this model in Gavras et al., Circ. Res. (1975), 36, 300-309). In the DOCA-salt rats, hypertension is induced by the combination of unilateral nephrectomy, implantation of pellets of the mineralocorticoid analog DOCA, and provision of 1% sodium chloride in drinking water. Groups of 6-11 DOCA-salt rats were used for the vehicle (7.5% gelatin aquous solution) and each dose of COMPOUND tested (0.3, 1, 3, 10, 30, 100, and 300 mg/kg). Effects of COMPOUND on HR and MAP were calculated for individual animals relative to the 24 h period before administering. The results obtained regarding MAP (maximal MAP decrease observed over 6 consecutive hours) are summarised in FIG. 10 (data are presented as mean±standard error of the mean). […] In contrast to MAP, HR was not affected.

[4] = test system: conscious, male hypertensive Dahl salt-sensitive rats; test: Acute effects on MAP and HR by telemetry in Dahl salt-sensitive rats; format: in vivo, rat; details: Dahl-S rats, doses 0.3-300 mg/kg
Description: The acute effects of COMPOUND on blood pressure, in particular on mean arterial blood pressure (hereafter “MAP”), and heart rate (hereafter “HR”) were evaluated by means of telemetry in conscious, male hypertensive Dahl salt-sensitive rats (hereafter “Dahl-S rats”-see details about this model in Rapp, Hypertension (1982), 4, 753-763). Elevated blood pressure is induced in Dahl-S rats by providing 1% sodium chloride in drinking water. Groups of 6-7 Dahl-S rats were used for the vehicle (7.5% gelatin aquous solution) and each dose of COMPOUND tested (0.3, 1, 3, 10, 30, 100, and 300 mg/kg). Effects of COMPOUND on HR and MAP were calculated for individual animals relative to the 24 h period before administering. The results obtained regarding MAP (maximal MAP decrease observed over 6 consecutive hours) are summarised in FIG. 9 (data are presented as mean±standard error of the mean). […] In contrast to MAP, HR was not affected.

[5] = test system: subjects having essential hypertension; details: phase 2 trial, cited from earlier work
[6] = Storage at room temperature of crystalline forms (XRPD, HPLC control); format: physicochemical; details: 20-25° C.
Description: All XRPD patterns for the solid forms described herein have been obtained as described hereafter. X-ray powder diffraction patterns were collected on a Bruker D8 Advance X-ray diffractometer equipped with a Lynxeye detector operated with CuKα-radiation in reflection mode (coupled two Theta/Theta). Typically, the X-ray tube was run at of 40 kV/40 mA. A step size of 0.02° (2θ) and a step time of 76.8 see over a scanning range of 3-500 in 2θ were applied. The divergence slit was set to fixed 0.3. Powders were slightly pressed into a silicon single crystal sample holder with depth of 0.5 mm and samples were rotated in their own plane during the measurement. Diffraction data are reported using combined Cu Kα1 and Kα2 radiation, without Kα2 stripping. The accuracy of the 2θ values as provided herein is in the range of +/−0.1-0.2° as it is generally the case for conventionally recorded X-ray powder diffraction patterns. A sample of Form A crystals of the COMPOUND (as obtained according to Example 1 above) has been stored at a temperature of 20-25° C. at 92% relative humidity for 2 months. […] The same result was obtained after storage for 8 weeks under the above coditions. […] A sample of Form B crystals of a dichloromethane solvate of the COMPOUND (as obtained according to Example 2 above) has been stored in a closed vial (20 mg of Form B crystals being placed in a closed 4 mL vial) at a temperature of 20-25° C. for about 3 weeks. […] A sample of Form K crystals of a dimethylsulfoxide solvate of the COMPOUND (as obtained according to Example 7 above) has been stored in a closed vial (20 mg of Form K crystals being placed in a closed 4 mL vial) at a temperature of 20-25° C. for about 3 weeks.

[7] = Hygroscopicity by gravimetric vapour sorption (GVS); format: physicochemical; details: 25° C., mass change between 40% and 80% RH, first adsorption scan
Description: Measurements are performed on a multi sample instrument SPS-100n (Projekt Messtechnik, Ulm, Germany) operated in stepping mode at 25° C. The sample is allowed to equilibrate at 40% RH before starting a pre-defined humidity program (40-0-95-0-95-40% RH, steps of 5% ΔRH and with a maximal equilibration time of 24 hours per step are applied. About 20 to 30 mg of each sample is used.
The mass change between 40% relative humidity and 80% relative humidity in the first adsorption scan is considered.
Form A e.g. as obtained from Example 1 is considered to be non-hygroscopic as determined by gravimetric vapor sorption (GVS) (see FIG. 19).

patients with diabetes = details: cited from earlier work
patients with rHT = details: 14 week phase 3 trial; cited from earlier work

SMILES: NS(=O)(=O)Nc1ncnc(OCCOc2ncc(Br)cn2)c1-c1ccc(Br)cc1 [Form C, {5-(4-bromo-phenyl)-6-[2-(5-bromo-pyrimidin-2-yloxy)-ethoxy]-pyrimidin-4-yl}-sulfamide]
- hygroscopicity (GVS) [7]: slightly hygroscopic (increase in mass is less than 2% and equal to or greater than 0.2% mass/mass)

SMILES: COc1ccccc1Oc1c(NS(=O)(=O)c2ccc(C)cn2)nc(-c2ccncc2)nc1OC [avosentan]
- treatment effect (reduction of proteinuria) (patients with diabetes): showed significant treatment effect
- discontinuation of trial medications due to adverse events (patients with diabetes; predominantly fluid overload and congestive heart failure): significantly increased discontinuation

SMILES: COc1cc(OC)nc(O[C@H](C(=O)O)C(OC)(c2ccccc2)c2ccccc2)n1 [darusentan]
- withdrawal because of adverse events as compared with placebo (patients with rHT): More patients withdrew

Second part, led by results:

- haematocrit (Hct), marker of fluid retention (male Wistar rats): did not impact on haematocrit
SMILES: NS(=O)(=O)Nc1ncnc(OCCOc2ncc(Br)cn2)c1-c1ccc(Br)cc1 [COMPOUND, {5-(4-bromo-phenyl)-6-[2-(5-bromo-pyrimidin-2-yloxy)-ethoxy]-pyrimidin-4-yl}-sulfamide]
- effect on DOCA-salt-induced increase in MAP [1]: dose-dependently attenuated the DOCA-salt-induced increase in MAP
- effect on heart rate (HR) [1]: without changing HR
- effect on heart rate (HR) [2]: not affected
- effect on heart rate (HR) [3]: not affected
- effect on heart rate (HR) [4]: not affected
- body weight ([5]; at higher doses): increased body weight at higher doses
- cases of peripheral edema ([5]; at higher doses): four
- control of blood pressure ([5]; essential hypertension, monotherapy): may result in efficacious control of blood pressure
- hemoglobin concentration [5]: dose related decrease

- solid form by X-ray powder diffraction after storage ([6]; 92% relative humidity, 2 months): still consisting only in Form A crystals
- degradation by HPLC control (peak area %) after storage ([6]; 92% relative humidity, 8 weeks): no significant degradation
- hygroscopicity (GVS) [7]: non-hygroscopic
SMILES: NS(=O)(=O)Nc1ncnc(OCCOc2ncc(Br)cn2)c1-c1ccc(Br)cc1 [Form A, {5-(4-bromo-phenyl)-6-[2-(5-bromo-pyrimidin-2-yloxy)-ethoxy]-pyrimidin-4-yl}-sulfamide]

- solid form by X-ray powder diffraction after storage ([6]; closed vial, about 3 weeks): transformed into Form A crystals
SMILES: NS(=O)(=O)Nc1ncnc(OCCOc2ncc(Br)cn2)c1-c1ccc(Br)cc1 [Form B, {5-(4-bromo-phenyl)-6-[2-(5-bromo-pyrimidin-2-yloxy)-ethoxy]-pyrimidin-4-yl}-sulfamide]
